# Reference: paper PMC4285233 (Molecular Microbiology, 2014)
# Tests used:
# [1] = biological target: T1, Gap1 (general amino acid permease) (Saccharomyces cerevisiae, UniProt P19145); test: inhibition of L-citrulline uptake in intact yeast; format: cell-based
# T1 sequence (P19145 1-602): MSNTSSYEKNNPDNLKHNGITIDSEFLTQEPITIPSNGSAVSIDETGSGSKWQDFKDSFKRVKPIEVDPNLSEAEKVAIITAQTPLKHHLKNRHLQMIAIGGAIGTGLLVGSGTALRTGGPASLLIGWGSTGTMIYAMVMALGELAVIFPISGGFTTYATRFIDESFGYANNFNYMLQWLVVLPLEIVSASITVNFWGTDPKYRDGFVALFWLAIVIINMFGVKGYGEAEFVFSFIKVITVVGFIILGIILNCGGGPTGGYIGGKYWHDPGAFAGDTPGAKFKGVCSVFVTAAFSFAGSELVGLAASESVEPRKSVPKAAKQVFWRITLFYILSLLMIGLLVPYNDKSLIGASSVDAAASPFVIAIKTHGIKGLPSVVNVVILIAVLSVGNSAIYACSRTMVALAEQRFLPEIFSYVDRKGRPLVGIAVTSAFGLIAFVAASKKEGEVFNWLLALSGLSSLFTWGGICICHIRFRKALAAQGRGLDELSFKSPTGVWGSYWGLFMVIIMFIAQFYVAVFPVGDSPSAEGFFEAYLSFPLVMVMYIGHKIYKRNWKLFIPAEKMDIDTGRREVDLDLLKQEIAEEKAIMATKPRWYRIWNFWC
# [2] = biological target: T1, Gap1 (general amino acid permease); test: inhibition of […]-L-citrulline uptake in intact yeast; format: cell-based
Ki [2] [µM],Compound,"inhibition of L-citrulline uptake in intact yeast (Fig. S6B, C) [1]"
,N[C@H](Cc1c[nH]cn1)C(=O)O [D-histidine],Moreover they are acting largely as competitive inhibitors of L-citrulline transport (Fig. S6B and C)
2.5,N[C@@H](Cc1c[nH]cn1)C(=O)O [L-histidine],
3.3,N[C@@H](Cc1c[nH]c2ccccc12)C(=O)O [L-tryptophan],
,NCCC(=O)O [β-alanine],Moreover they are acting largely as competitive inhibitors of L-citrulline transport (Fig. S6B and C)

Compound,Ki [2] [µM],"inhibition of L-citrulline uptake in intact yeast (Fig. S6B, C) [1]"
NCCCC[C@H](N)C(=O)O [L-lysine],9.5,
